60 molecules from the METLIN SMRT retention time set (Domingo-Almenara et al. 2019) can be followed below.

Structures are written as SMILES.

The data set can be described thus: gradient 5% acetonitrile 3 min, to 50% in 2 min, to 85% in 15 min, held 3 min, 100 µL/min. Conditions: column: Zorbax Extend-C18 2.1 x 50 mm; eluents: water / acetonitrile, 0.1% formic acid. The procedure, abridged:
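Retention times of pure standards were taken from adduct peaks that were selected by computer and manually inspected. Over 3 months, mixtures of ~100 molecules were run by HPLC–quadrupole time-of-flight mass spectrometry in positive and negative ionization mode. The Zorbax Extend-C18 column (2.1 × 50 mm, 1.8 μm) ran at 100 μL/min in water and acetonitrile, each containing 0.1% formic acid, with 40 μL dead volume and 900 μL dwell volume.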
Take `O=S(=O)(Nc1ccc(F)cc1)c1cccnc1Nc1ccc(F)c(F)c1`: the RP-LC retention time was 1080 s.

On to `CCc1ccc(-c2noc(Cn3c(=O)n(-c4ccc(C)cc4)c(=O)c4sccc43)n2)cc1`, for which the RP-LC retention time was found to be 1160 s. On to `CC(C)c1noc(-c2ccc(-n3cnc(C(=O)NC4CCCC4)c3)nc2)n1`, for which the RP-LC retention time was found to be 915 s. `COc1cccc(CNC(=O)C2(C)CCCN(C(=O)Nc3ccc(OC)c(OC)c3)C2)c1` (stereo not given) had an RP-LC retention time of 746 s. For the molecule `O=C(Nc1ccc2c(c1)OCCO2)C1CCN(C(=O)C2Sc3ccccc3NC2=O)CC1` (stereo not given), the RP-LC retention time was determined as 730 s. Molecule `CC[C@@H](c1cccc(O)c1)[C@@H](C)CN(C)C` came in with an RP-LC retention time of 633 s. To `Cc1cnc(C(=O)N2CC[C@H](n3c(=O)n(C)c4cccnc43)C2)cn1` belongs 647 s; to `CN1CC[C@]2(c3cccc(O)c3)Cc3nc4ccccc4cc3C[C@H]2C1`, 572 s. Under `CCCOc1ccc(-c2csc(NC(=O)c3sc(C)nc3C)n2)cc1` stands 1080 s; under `CCNc1nc(C)cc(N2CCN(C(=O)Nc3ccc(C)cc3C)CC2)n1`, 656 s. As for `CCc1ccccc1NS(=O)(=O)c1cc2n(c1)CCCNC2=O`, the RP-LC retention time was found to be 663 s. `O=C(CN1c2ccc(F)cc2-c2ccccc2S1(=O)=O)N1CCCCCC1` displayed an RP-LC retention time of 958 s. In turn, `COc1cc(OC)c(NC(=O)N2CCc3c(c(C(=O)N4CCOCC4)nn3C)C2)cc1Cl` yielded an RP-LC retention time of 692 s. `Cn1cc(-c2cc3n(n2)CCCN3C(=O)CCC(=O)NCCC2=CCCCC2)c2ccccc21` registered an RP-LC retention time of 920 s.

Consider `CC1(C)CC(=O)c2cn(-c3ccccc3)c(=O)c(C(=O)N3CCN(C4CCCCC4)CC3)c2C1`, for which the RP-LC retention time was found to be 586 s.

`CCCn1cnc2cc(CNC(=O)COc3ccc(Cl)cc3C)ccc21` came in with an RP-LC retention time of 692 s. In the case of `Cc1c(Cl)cccc1NC(=O)Cn1nc(C(=O)N2CCCCC2)c2ccccc21`, the RP-LC retention time was found to be 917 s. Turning to `O=C(Cc1cc(-c2ccc(F)cc2)on1)NCCc1c[nH]c2ccccc12`, the RP-LC retention time worked out at 824 s. On to `CCc1ccc(-c2noc(CN3C(=O)COc4ccc(C)cc43)n2)cc1`, for which the RP-LC retention time was determined as 1160 s. In the case of `COC(=O)C1C(O)CCC2CN3CCc4c([nH]c5ccccc45)C3CC21` (stereo not given), the RP-LC retention time was determined as 673 s.

Molecule `Cc1ccc(-c2nocc2CCC(=O)NC(C)c2ccc(F)cc2)cc1` (stereo not given) gave an RP-LC retention time of 953 s. `CCc1ccc(C(=O)N2CCC3(CC2)N=C(c2ccc(C)cc2)NO3)cc1`: the RP-LC retention time stood at 933 s.

Consider `CC(C)NC(=O)c1ccc(OCC2CCCN(C(=O)c3ccc(F)cc3Cl)C2)cc1` (stereo not given), for which the RP-LC retention time came to 887 s.

`Cc1ccc(-n2cc(C(=O)N3CCC(C(N)=O)CC3)nn2)cc1` showed an RP-LC retention time of 641 s. As for `CCCCN1CCN(Cc2nc(-c3ccc(N4CCC(C)CC4)nc3)no2)CC1`, the RP-LC retention time was 644 s. Molecule `COc1cc(NC(=O)CN2C(=O)CC(c3ccc(Cl)cc3)=Nc3cccnc32)cc(OC)c1` had an RP-LC retention time of 1000 s. For `Cc1ccc(-c2cc3n(n2)CCCN(C(=O)Cc2ccsc2)C3)cc1`, the RP-LC retention time turned out to be 857 s. `CCN(CC)c1nc(C(=O)NCc2ccncc2)nc2nc(C)cc(C)c12`: the RP-LC retention time is 511 s.

`Cc1ccc(CN2CC(=O)N(CCc3ccccn3)C(c3cccs3)C2=O)cc1` (stereo not given) had an RP-LC retention time of 559 s. To `CCN1CCN(CCCNC(=O)c2ccc(CS(=O)c3ccc(Cl)cc3)o2)CC1` (stereo not given) belongs 569 s; to `CCn1c(=O)c(N2CCC(C(=O)NCCCN3CCCC3=O)CC2)nc2ccccc21`, 643 s; to `CN1CCN(C(=O)C2CCN(S(=O)(=O)c3cc(-c4noc(C5CCC5)n4)cs3)CC2)CC1`, 672 s. The molecule `c1ccc(CNc2c(-c3ccccc3)nc3ncccn23)cc1` returned an RP-LC retention time of 709 s. For `O=C(Nc1ccc(Cl)cc1F)C1CCCN(C(=O)Cc2cccc3ccccc23)C1` (stereo not given), the RP-LC retention time stood at 1050 s. `Cn1nccc1-c1cccc(-c2noc(CNS(=O)(=O)c3ccc(F)cc3)n2)c1`: the RP-LC retention time was 868 s. In turn, `CCn1cc(C)c(C(=O)O)c1CC(=O)N1CCCCC1` yielded an RP-LC retention time of 694 s. Turning to `Cn1cnc(S(=O)(=O)N2CCC(C(=O)NCc3ccccc3)CC2)c1`, the RP-LC retention time was 660 s. On to `Cn1cccc1C(=O)NC(C)(C)c1nc2c(c(C(N)=O)n1)OCCO2`, for which the RP-LC retention time worked out at 608 s. `COc1ccc2c(c1)C1(CCN(C(=O)NC3CCCCC3)C1)C(=O)N2` (stereo not given) returned an RP-LC retention time of 703 s. With `O=C(NCc1ccc(-c2nc(-c3cccs3)no2)s1)C1CCC1`, the RP-LC retention time was found to be 910 s. To `CCn1c(C2CCN(C(=O)Nc3cccc(Cl)c3)CC2)cc(=O)n2nccc12` belongs 718 s; to `Cc1ccc(C(=O)N(CCCN)[C@@H](c2nc3cc(Cl)ccc3c(=O)n2Cc2ccccc2)C(C)C)cc1`, 990 s. On to `CC(C)CCNC(=O)c1cn2ccccc2n1`, for which the RP-LC retention time stood at 656 s.

Molecule `CCc1nc2cc(-c3noc(-c4ccccc4OC)n3)ccc2o1` displayed an RP-LC retention time of 1080 s. Take `COc1ccc(-c2noc(C3CC(=O)N(c4ccc(C)c(Cl)c4)C3)n2)c(OC)c1` (stereo not given): the RP-LC retention time amounted to 982 s. To `CC(C)c1csc(-c2csc(S(=O)(=O)NCc3ccccc3)c2)n1` belongs 1040 s. In turn, `CCn1ccc(C(=O)N2CCC[C@H]2c2nc(-c3ccccc3)n[nH]2)n1` yielded an RP-LC retention time of 662 s.

On to `Cc1ccc(-n2c(=O)c3c(cc(C)n3C)n(CC(=O)Nc3ccc(C)c(F)c3)c2=O)cc1`, for which the RP-LC retention time worked out at 931 s. `N#CCSc1nnc2ccc3ccccc3n12` showed an RP-LC retention time of 639 s. `OC(CN1CCC(Cc2ccc(F)cc2)CC1)c1ccc(Cl)cc1` (stereo not given) showed an RP-LC retention time of 825 s. For the molecule `Cc1ccc(S(=O)(=O)NCC2CN(C(C)C)CC23CCCCC3)c(C)c1` (stereo not given), the RP-LC retention time turned out to be 738 s. As for `COc1ccc(-c2ncc3c(n2)CCN(S(=O)(=O)c2ccc4c(c2)CCC4)C3)cc1`, the RP-LC retention time came to 1160 s. In turn, `Cc1c(C(=O)O)sc2nc(SCC(=O)Nc3ccccc3C(F)(F)F)[nH]c(=O)c12` showed an RP-LC retention time of 669 s. Molecule `CCNC(=O)N1CCCCCC1CN1CCCC1` (stereo not given) yielded an RP-LC retention time of 564 s.

Take `CCC1CCCCN1C(=O)CN1CCn2c1nc(C)c(C)c2=O` (stereo not given): the RP-LC retention time worked out at 618 s. As to `Cc1ccc(-c2ncc(NC(=O)c3ccc(Br)o3)cn2)cc1`, the RP-LC retention time was 1030 s. `CCOc1ccc(NC(=O)C2CCN(S(=O)(=O)c3cn(C(C)C)cn3)CC2)cc1` had an RP-LC retention time of 775 s. On to `Cc1cc(=O)n(CC(=O)Nc2cccc(C)c2C)c(NCCCc2ccccc2)n1`, for which the RP-LC retention time amounted to 892 s.

`CCOCCCNC(=O)c1c(OCC)cc(=O)n2c1CCCCC2`: the RP-LC retention time was found to be 621 s. `COc1ccc(OC)c(Nc2c(-c3ccc(Br)cc3)nc3cnccn23)c1` yielded an RP-LC retention time of 1000 s.
